Assay in all cases: NCI anticancer screen, dose series, 48 h
Assay [1] deals with EKVX.
The test system of assay [2] is HCT-15.
The subject of assay [3] is OVCAR-4.
Assay [4] relates to SNB-75.
For assay [5], the system named is PC-3.
In assay [6] the test system is HL-60.
Assay [7] has as its system SK-MEL-5.
The test system of assay [8] is ACHN.
The subject of assay [9] is COLO 205.
For assay [10], the system named is K562.
Assay [11] concerns NCI-H522.
Assay [12] deals with SW-620.
In assay [13] the test system is SF-268.
Assay [14] relates to SK-MEL-28.
Assay [15] relates to SF-295.
The test system of assay [16] is OVCAR-8.
Assay [17] concerns M14.
Assay [18] concerns KM12.
The test system of assay [19] is SK-OV-3.
Assay [20] deals with Malme-3M.

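These data come from cells grown in 96-well plates and exposed to compound for 48 hours at five concentrations. The concentration for 50% growth inhibition is given as GI50.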 Calls of active or inactive are those of the source. Rule as the data show it: active = GI50 up to about 1.1 µM and inactive = higher.

In the case of `C=C1C(=O)O[C@H]2C/C(C)=C/CC/C(C)=C/CC[C@@](C)(O)[C@@H](I)C[C@@H]12`, the GI50 was 7.14 µM (inactive) in [1]; 6.04 µM in [2]; 4.94 µM (inactive) in assay [3]; 11 µM (inactive) in assay [4]; 8.26 µM (inactive) in assay [5]; 2.58 µM (inactive) in assay [6]. Further, the GI50 in assay [7] is 11.8 µM (inactive); in assay [8] it was 8.77 µM (inactive); in assay [9], 9.44 µM (inactive); in [10], 2.94 µM (inactive); in assay [11] it was 2.64 µM (inactive); in assay [12], 4.25 µM (inactive). The GI50 in assay [13] is 14 µM (inactive); in assay [14], 13.6 µM (inactive); in [15] it was 18.4 µM (inactive); in [16], 0.791 µM (active); in [17], 9.64 µM (inactive); in assay [18] it was 5.65 µM (inactive). Further, the GI50 in assay [19] is 16 µM (inactive); in [20], 4.49 µM (inactive).

On to `CCOC(=O)C(Cl)(NC(=O)c1ccc(F)cc1)C(F)(F)F` (stereo not given), for which the GI50 in [1] was > 100 µM (inactive); in [2] it was more than 100 µM; in assay [3], > 100 µM (inactive); in [4] it was 77.3 µM (inactive); in [5], > 100 µM (inactive); in assay [6] it was > 100 µM (inactive). Also, the GI50 in assay [7], in assay [8], in [9], in assay [10], in [11] and in [12] was > 100 µM (inactive) each time. Besides, the GI50 in [13] is > 100 µM (inactive); in [14] it was > 100 µM (inactive); in [15], > 100 µM (inactive); in assay [16], > 100 µM (inactive); in [17], > 100 µM (inactive); in assay [18] it was 39.2 µM (inactive). For the same compound, the GI50 in [19] and in [20] was > 100 µM (inactive) throughout.

As to `CC(=O)C(C(c1ccccc1)N1CCOCC1)N1CCOCC1` (stereo not given), the GI50 in assay [1] was > 100 µM (inactive); in assay [2] it was more than 100 µM; in assay [3], > 100 µM (inactive); in assay [4] it was > 100 µM (inactive); in assay [5], > 100 µM (inactive); in assay [6], > 100 µM (inactive). Also, the GI50 in assay [7], in assay [8], in [9], in assay [10], in assay [11] and in [12] was > 100 µM (inactive) in each case. The GI50 in assay [13], in assay [14], in assay [15], in assay [16], in assay [17] and in assay [18] was > 100 µM (inactive) throughout. Also, the GI50 in assay [19] and in [20] was > 100 µM (inactive) throughout.

Take `COc1cc(C(C[N+](=O)[O-])SC(C)=O)ccc1OCc1ccccc1` (stereo not given): the GI50 is 19.8 µM (inactive) in assay [1]; 3.08 µM in assay [2]; 14.4 µM (inactive) in [3]; 11.4 µM (inactive) in assay [4]; 4.47 µM (inactive) in assay [5]; 0.261 µM (active) in [6]. The GI50 in assay [7] was 9.04 µM (inactive); in assay [8], 9.55 µM (inactive); in assay [9] it was 5.24 µM (inactive); in assay [10], 1.38 µM (inactive); in [11] it was 0.345 µM (active); in [12] it was 3.13 µM (inactive). The GI50 was 6.14 µM (inactive) in [13]; 2.54 µM (inactive) in assay [14]; 2.9 µM (inactive) in [15]; 5.9 µM (inactive) in assay [16]; 4.89 µM (inactive) in assay [17]; 4.85 µM (inactive) in [18]. Also, the figures for the GI50 in [19] and in assay [20] were 16.1 µM (inactive) and 12.3 µM (inactive), respectively.

Take `O=C(c1ccccc1)C(Nc1ccc2ccccc2c1)c1ccccc1` (stereo not given): the GI50 in assay [1] is 17.6 µM (inactive); in [2], 29 µM; in assay [3], 38.1 µM (inactive); in [4], 33.5 µM (inactive); in assay [5], 17.6 µM (inactive); in assay [6] it was 13.1 µM (inactive). In addition, the GI50 in [7] is 16.9 µM (inactive); in [8], 48.8 µM (inactive); in [9], 17.6 µM (inactive); in [10], 7.36 µM (inactive); in [11], 6.98 µM (inactive); in [12] it was 27.7 µM (inactive). Moreover, the GI50 was 39.5 µM (inactive) in [13]; 49.7 µM (inactive) in assay [14]; 24.7 µM (inactive) in [15]; 42 µM (inactive) in assay [16]; 31.3 µM (inactive) in assay [17]; 19.8 µM (inactive) in assay [18]. The GI50 in [19] is 40.7 µM (inactive); in assay [20], 30.2 µM (inactive).

For `COc1cc(C2c3cc4c(cc3OC(NNC(N)=O)C2C)OCO4)cc(OC)c1O` (stereo not given), the GI50 in assay [1] is > 28.4 µM (inactive); in assay [2], 13 µM; in assay [3], > 43.9 µM (inactive); in assay [4], 0.805 µM (active); in [5] it was 1.67 µM (inactive); in [6], 0.867 µM (active). For the same compound, the GI50 in assay [7] is 0.91 µM (active); in assay [8], 5.93 µM (inactive); in assay [9], 2.59 µM (inactive); in assay [10], 0.433 µM (active); in assay [11] it was 0.285 µM (active); in [12], 1.2 µM (inactive). Also, the GI50 was 8.26 µM (inactive) in assay [13]; 27.4 µM (inactive) in [14]; 1.04 µM (active) in [15]; 4.5 µM (inactive) in [16]; 2.73 µM (inactive) in assay [17]; 0.813 µM (active) in [18]. Also, the GI50 in assay [19] was 3.11 µM (inactive); in assay [20] it was 0.615 µM (active).

For the compound `C/C(=N\NC(=S)Nc1ccc(Cl)cc1)c1nc2cccnc2[nH]1`, the GI50 was 0.608 µM (active) in assay [1]; 2.39 µM in [2]; 5.64 µM (inactive) in assay [3]; 4.91 µM (inactive) in assay [4]; 1.39 µM (inactive) in [5]; 0.818 µM (active) in assay [6]. Also, the GI50 in assay [7] is 1.67 µM (inactive); in assay [8] it was 0.822 µM (active); in assay [9] it was 4.07 µM (inactive); in assay [10], 3.33 µM (inactive); in assay [11] it was 6.89 µM (inactive); in assay [12] it was 4.93 µM (inactive). Besides, the GI50 in assay [13] is 0.438 µM (active); in assay [14] it was 1.51 µM (inactive); in assay [15] it was 2.15 µM (inactive); in assay [16], 1.45 µM (inactive); in assay [17] it was 1.48 µM (inactive); in assay [18], 1.23 µM (inactive). Also, the results for the GI50 in assay [19] and in assay [20] were 4.31 µM (inactive) and 3.35 µM (inactive), respectively.

Take `CNc1ccc(-c2nc3cc(C)ccc3o2)cc1`: the GI50 in [1] is 32.4 µM (inactive); in assay [2], more than 100 µM; in assay [3], > 100 µM (inactive); in [4] it was 14.7 µM (inactive); in assay [5], > 100 µM (inactive); in assay [6], > 100 µM (inactive). In addition, the GI50 in [7] is > 100 µM (inactive); in assay [8], 57.3 µM (inactive); in assay [9] it was > 100 µM (inactive); in assay [10] it was > 100 µM (inactive); in [11] it was 88.1 µM (inactive); in assay [12] it was > 100 µM (inactive). Moreover, the GI50 in assay [13] is 42.7 µM (inactive); in assay [14] it was > 100 µM (inactive); in assay [15], 28.9 µM (inactive); in assay [16], 58.1 µM (inactive); in [17], > 100 µM (inactive); in assay [18] it was > 100 µM (inactive). Further, the GI50 is 18.2 µM (inactive) in assay [19] and > 100 µM (inactive) in assay [20].

With `CC(=O)/N=C1\N/C(=C\c2ccc(Cl)cc2)C(=O)N1/C=C1\C(=O)Oc2ccccc2C1=O`, the GI50 in assay [1] was 13.3 µM (inactive); in assay [2], 85.1 µM; in assay [3], > 100 µM (inactive); in [4] it was 27.5 µM (inactive); in assay [5], > 100 µM (inactive); in [6], > 100 µM (inactive). Moreover, the GI50 in assay [7] was 47.2 µM (inactive); in assay [8], > 100 µM (inactive); in assay [9] it was > 100 µM (inactive); in assay [10] it was 67.3 µM (inactive); in assay [11] it was 78.9 µM (inactive); in assay [12], > 100 µM (inactive). In addition, the GI50 in [13] was 45.9 µM (inactive); in [14] it was > 100 µM (inactive); in [15], > 100 µM (inactive); in [16], > 100 µM (inactive); in assay [17], > 100 µM (inactive); in assay [18], > 100 µM (inactive). In addition, the GI50 in assay [19] and in assay [20] was > 100 µM (inactive) each time.

Take `O=C1N/C(=N\N=C\c2ccccc2)C(c2ccccc2)O1` (stereo not given): the GI50 was 66.8 µM (inactive) in [1]; 19.8 µM in [2]; 38.5 µM (inactive) in assay [3]; < 0.01 µM (active) in [4]; 61.8 µM (inactive) in [5]; 30.1 µM (inactive) in [6]. Moreover, the GI50 is 66.8 µM (inactive) in [7]; 53.5 µM (inactive) in [8]; 40.9 µM (inactive) in assay [9]; 35.8 µM (inactive) in assay [10]; > 100 µM (inactive) in [11]; 59.4 µM (inactive) in assay [12]. Moreover, the GI50 in assay [13] is 52.2 µM (inactive); in [14], > 100 µM (inactive); in assay [15], 42.5 µM (inactive); in assay [16], 47.5 µM (inactive); in [17] it was 54 µM (inactive); in [18], > 100 µM (inactive). For the same compound, the GI50 in [19] and in assay [20] was > 100 µM (inactive) throughout.

(Values after ChEMBL document CHEMBL1201862, “PubChem BioAssay data set” (2004).)
